Data taken from paper PMC11431785, “From In Vitro Promise to In Vivo Reality: An Instructive Account of Infection Model Evaluation of Antimicrobial Peptides” (International Journal of Molecular Sciences, 2024).
Residues, ends and D or L forms follow the SMILES beside them. No end group written: not given here.

Key:
Balb/c mice [1] = experiment: Sighting study (tolerance in mice); assay type: in vivo, mouse; details: for tolerance in sighting study: i.p., 30 mg/kg for Ctn[15-34] and Ctn[15-34] re, 3 mg/kg for Ctn re as initial doses; for time to death of an animal: sighting study, one animal
Experimental: To determine the maximum lethal dose and appropriate doses for the main study, a sighting study (Figure 2A) was first conducted. Peptides (Ctn[15-34], Ctn[15-34] re and Ctn re) were administered intraperitoneally (i.p.) at initial doses of 30 mg/kg for Ctn[15-34] and Ctn[15-34] re and 3 mg/kg for Ctn re. If no toxicity signs were observed, the dose was increased. If toxicity signs or death occurred, a lower dose was administered to another animal until an adequate dose was found. After the sighting study was completed, two main studies were performed.
(§1) Nine clinical parameters were assessed by a scoring system (see Table S1). For each parameter a score from 0 to 3 in increasing severity was used. In the sighting (tolerance) study, the clinical score was measured at 10 min, 30 min, 1 h, 2 h, 4 h, 7 h, 24 h, and 48 h after peptide administration. In assays 1 and 2 of the tolerance study, scoring was recorded twice a week for 2 weeks. In the efficacy study, the clinical score was recorded every 2–3 h on day 0 and twice a day on days 1 and 2. An animal was euthanized if it scored 3 on any parameter, or if a combined score of 7 or above was reached.

Balb/c mice [2] = experiment: Tolerance assay 1; assay type: in vivo, mouse; details: single i.p. dose, 30 mg/kg Ctn[15-34], 3 mg/kg Ctn re, five female mice per group, 14 days
Experimental: Assay 1: […] randomly distributed groups of five female mice each were used for Ctn[15-34] (30 mg/kg) and Ctn re (3 mg/kg) and negative control (HBS). Ctn[15-34] re was not included due to spontaneous mortality in the sighting study, even at low concentrations. The peptide was administered i.p., and mice were monitored twice on day 0, once a day until day 4, and then three times a week. The study lasted for 14 days, after which the animals were euthanized, and a systematic necropsy was performed.
(§2) Body weight (BW, g) gain (%) was determined at different stages. In the tolerance assays, BW gain was recorded before inoculation and twice a week for 2 weeks. In the efficacy studies, BW gain was likewise measured before inoculation and then twice a day.
as §1

Balb/c mice [3] = experiment: Tolerance assay 2; assay type: in vivo, mouse
Experimental: Assay 2: Two randomly distributed groups of six female mice each were given two different concentrations of Ctn[15-34] (30 and 20 mg/kg). Each animal was treated with each dose three times a day for three days.
as §2, §1

A. baumannii [4] = experiment: Histopathology: hematoxylin and eosin stain and tissue Gram stain; assay type: in vivo, mouse; details: infected and treated mice
Experimental: Following termination of the animals, the following organs were harvested and preserved: right lung, digestive system, pancreas, kidneys, liver, spleen, and brain. These organs were fixed in paraformaldehyde at 4 °C for 24 h.
The tissue processing proceeded through a stepwise procedure. Firstly, the tissues underwent a rinse with formalin for 1.5 h, followed by cleaning with distilled water for 5 min. Subsequently, they were dehydrated using a series of graded ethanol solutions: 80% ethanol for 1 h, 96% ethanol for two consecutive immersions lasting 1 h each, and finally, 100% ethanol for 2 consecutive immersions of 1 h each and an additional immersion for 1.5 h. Following dehydration, the tissues were submerged in xylene for two immersions, each lasting 1.5 h, before being placed in hot liquid paraffin for two consecutive immersions of 1 h each and an additional immersion of 2 h. The treated specimens were embedded in tissue cassettes using a TissueTek embedding console and allowed to cool until the paraffin solidified.
From each paraffin block, […] sections were cut using a microtome (Leica) and mounted on slides. These slides underwent rehydration through a series of graded alcohols: 100% ethanol for 5 min, 85% ethanol for 5 min, 70% ethanol for 5 min, and distilled water. […] After drying, the sections were analyzed using a microscope (Leica DMR, Leica Biosystems, IL, United States). […]

[5] = cited from earlier work; for t1/2: human serum mixed 1:1 with peptide 1 mM in water, 37 °C with stirring, aliquots 0-1440 min, TCA precipitation, HPLC
Description: (§3) Table 1 Sequence and properties of peptides in this study. | column: t1/2 (min) || In this work, we focus on crotalicidin (Ctn), a 34-residue AMP from the venom of Crotalus durissus terrificus, a South American pit viper. […] It is, however, slightly toxic to eukaryotic cells, including cancer cells, which makes it a good anticancer peptide (ACP) candidate. Virtual Ctn dissection with elastase yields two fragments, Ctn[1-14] and Ctn[15-34]. While the former (KRFKKFFKKVKKSV) retains the α-helical conformation of Ctn, it loses both the anticance ...

[6] = fragments compared with Ctn; cited from earlier work
Description: as §3, with “In” for “Table 1 Sequence and properties of peptides in this study. | column: t1/2 (min) || In”

A. baumannii [7] = experiment: Efficacy assay 1 in mouse systemic infection model; assay type: in vivo
Experimental: (§4) A systemic infection model was established in mice, as described before. Briefly, an aliquot from A. baumannii stock in 15% glycerol at −80 °C was taken to culture in 3 mL of LB overnight at 37 °C and 250 rpm. After an OD600 reading to adjust bacterial concentration, the culture was diluted with an identical volume of 10% porcine mucin (an enhancer of bacterial infectivity) to a final 1 × 10^8 CFU/mL concentration. A 10 mL/kg inoculation volume was used for each animal.
Assay 1: A total of 24 mice (12 male, 12 female) randomly distributed into four groups were infected i.p. as described above, then each group was treated with Ctn[15-34] (30 mg/kg), Ctn re (3 mg/kg), colistin (10 mg/kg, positive control) or vehicle (HBS, negative control). Treatment (performed blindly) was applied 2 h after infection in a single i.p. dose. […]
as §1, with “For each parameter a score from 0 to 3 in increasing severity was used.” left out

A. baumannii [8] = experiment: Efficacy assay 2 in mouse systemic infection model; assay type: in vivo
Experimental: as §4
Assay 2: In total, 24 mice (12 male, 12 female) randomly distributed into six groups were infected i.p. as described above, then treated in duplicate groups with Ctn[15-34] (20 mg/kg), colistin (5 mg/kg, positive control) or vehicle (HBS, negative control). Treatment (performed blindly) was applied i.p. 2 h after infection and then every 4 h during day 0, and thrice daily for the next 2 days. All animals were checked for clinical signs twice a day for three days, as described in Table S1. On day 2, animals were euthanized with a 200 mg/kg i.p. dose of pentobarbital.
as §1

A. baumannii [9] = experiment: Colony-forming units (CFU) in mouse tissues; assay type: in vivo
Experimental: CFUs in the spleen and lungs of animals in the efficacy studies were counted after euthanasia. One lung and half of the spleen were extracted from each animal. Animals found dead overnight were excluded. The organs were weighed and homogenized in 1 mL of HBS. Subsequently, six serial 10-fold dilutions were prepared, each dilution seeded on a Petri dish with LB-agar and colonies counted after 16 h incubation at 37 °C. Final CFU counts are expressed relative to organ weight (CFU/g).

A. baumannii [10] = details: MHB, inoculum 5 × 10^5 CFU/mL, 20–22 h at 37 °C, 0.04% BSA and 0.002% acetic acid, duplicate; cited from earlier work
Description: Table 1 Sequence and properties of peptides in this study. | column: MIC (μM) A. baumannii

[11] = test system: 1BR3G human fibroblast cells; details: cytotoxicity, RPMI 2% FBS, Cell Titer Blue, triplicate; cited from earlier work
Description: Table 1 Sequence and properties of peptides in this study. | column: IC50 (μM)

KKRLKKIFKKPMVIGVTIPF-NH2 [Ctn[15-34]]
tolerance in sighting study (Balb/c mice [1]): viable at the predicted dosages | clinical condition in tolerance assay 1 (Balb/c mice [2]): most animals showed improved clinical conditions in the following days | clinical signs in tolerance assay 2 (Balb/c mice [3]; 20 mg/kg i.p. thrice daily for 3 days, compared with 30 mg/kg): reversible and consistently lower than for the 30 mg/kg group | BW loss during the first 24 h (Balb/c mice [3]; 30 and 20 mg/kg i.p. thrice daily for three days, both dosage groups, six female mice each): 6–9% | hematoxylin and eosin staining of spleen, lung, liver and kidney (A. baumannii [4]): apoptosis was noted in the spleen lymphocytes of one animal | t1/2 [5]: 12.8 h

KRFKKFFKKVKKSV [Ctn[1-14], fragment of crotalicidin, residues 1-14]
anticancer and antimicrobial properties [6]: loses both the anticancer and antimicrobial properties

CC[C@@H](C)[C@@H](NC(=O)CNC(=O)[C@H](NC(=O)[C@H](NC(=O)[C@H](NC(=O)[C@H]1CCCN1C(=O)[C@H](N)Cc1ccccc1)[C@H](C)CC)[C@H](C)O)C(C)C)C(=O)N[C@@H](C(=O)N[C@H](CCSC)C(=O)N1CCC[C@@H]1C(=O)N[C@H](CCCCN)C(=O)N[C@H](CCCCN)C(=O)N[C@H](Cc1ccccc1)C(=O)N[C@@H](C(=O)N[C@H](CCCCN)C(=O)N[C@H](CCCCN)C(=O)N[C@H](CC(C)C)C(=O)N[C@H](CCCNC(=N)N)C(=O)N[C@H](CCCCN)C(=O)N[C@H](CCCCN)C(=O)N[C@@H](C(=O)N[C@H](CO)C(=O)N[C@H](CCCCN)C(=O)N[C@H](CCCCN)C(=O)N[C@@H](C(=O)N[C@H](CCCCN)C(=O)N[C@H](CCCCN)C(=O)N[C@H](Cc1ccccc1)C(=O)N[C@H](Cc1ccccc1)C(=O)N[C@H](CCCCN)C(=O)N[C@H](CCCCN)C(=O)N[C@H](Cc1ccccc1)C(=O)N[C@H](CCCNC(=N)N)C(=O)N[C@H](CCCCN)C(N)=O)C(C)C)C(C)C)[C@H](C)CC)C(C)C [Ctn re] (HELM PEPTIDE1{[dF].[dP].[dI].[dT].[dV].G.[dI].[dV].[dM].[dP].[dK].[dK].[dF].[dI].[dK].[dK].[dL].[dR].[dK].[dK].[dV].[dS].[dK].[dK].[dV].[dK].[dK].[dF].[dF].[dK].[dK].[dF].[dR].[dK].[am]}$$$$V2.0)
tolerance in sighting study (Balb/c mice [1]): viable at the predicted dosages | clinical condition in tolerance assay 1 (Balb/c mice [2]): most animals showed improved clinical conditions in the following days | t1/2 [5]: 3.52 h

CC[C@@H](C)[C@@H](NC(=O)CNC(=O)[C@H](NC(=O)[C@H](NC(=O)[C@H](NC(=O)[C@H]1CCCN1C(=O)[C@H](N)Cc1ccccc1)[C@H](C)CC)[C@H](C)O)C(C)C)C(=O)N[C@@H](C(=O)N[C@H](CCSC)C(=O)N1CCC[C@@H]1C(=O)N[C@H](CCCCN)C(=O)N[C@H](CCCCN)C(=O)N[C@H](Cc1ccccc1)C(=O)N[C@@H](C(=O)N[C@H](CCCCN)C(=O)N[C@H](CCCCN)C(=O)N[C@H](CC(C)C)C(=O)N[C@H](CCCNC(=N)N)C(=O)N[C@H](CCCCN)C(=O)N[C@H](CCCCN)C(N)=O)[C@H](C)CC)C(C)C [Ctn[15-34] re] (HELM PEPTIDE1{[dF].[dP].[dI].[dT].[dV].G.[dI].[dV].[dM].[dP].[dK].[dK].[dF].[dI].[dK].[dK].[dL].[dR].[dK].[dK].[am]}$$$$V2.0)
time to death of an animal (Balb/c mice [1]; 5 mg/kg i.p.): 33 min | time to death of an animal (Balb/c mice [1]; 15 mg/kg i.p.): ≤ 6 min | time to death of an animal (Balb/c mice [1]; 30 mg/kg i.p.): ≤ 3 min | tolerance in sighting study (Balb/c mice [1]): toxic | t1/2 [5]: 15.4 h

colistin
clinical signs of treated infected animals (A. baumannii [7]; efficacy assay 1, colistin 10 mg/kg single i.p. dose): weight loss on the first day with subsequent recovery | survival rate (A. baumannii [7]; efficacy assay 1, single i.p. dose 2 h after infection, colistin 10 mg/kg, 3 days): 100% | clinical signs of treated infected animals (A. baumannii [8]; efficacy study 2, thrice daily dose of colistin, compared to the previous study): Increased toxicity | female animals surviving at the endpoint (A. baumannii [8]; efficacy study 2, thrice daily i.p. dosing, female mice): 75% | male animals surviving at the endpoint (A. baumannii [8]; efficacy study 2, thrice daily i.p. dosing, male mice): 50% | CFU/g in left lung and spleen (A. baumannii [9]; after both efficacy studies, positive control group): 10^1–10^2 CFU/g | bacterial presence in the spleen or lungs (A. baumannii [9]; efficacy study 2, animals not surviving the thrice daily colistin dosage): nearly negligible | Gram stain, bacterial load in spleen, lung, liver and kidney (A. baumannii [4]): no evidence of bacterial survival

LL-37: AMP named for comparison of half-life [reference compound]
half-life ([5]; typical AMP named for comparison with Ctn[15-34], no reference given): 1 h

crotalicidin [Ctn]
MIC (μM) A. baumannii (A. baumannii [10]): 0.78 µM | IC50 [11]: 14.3 µM | t1/2 [5]: 1.18 h
